Test results: US11298367B2, “Prodrugs of substituted triazole derivatives and uses thereof” (Bayer Aktiengesellschaft, priority 2017, dated 2022)
In brackets after ≈: the same amount, converted by molar mass. Read-outs that look alike come from different tables or passages of the source.

Key:
Solubility = format: physicochemical; conditions: 24 h room temperature, max. 500 μg/ml; for solubility at 24 h: thermodynamic from solid
Procedure: For each substance 0.5-0.6 mg are weighed exactly. In each case, sufficient medium is added to the sample in such a way that a concentration of c=500 μg/ml is obtained. This sample solution is shaken for 24 h at room temperature and 1400 rpm.
A further sample weight of 0.5-0.6 mg is required for the DMSO calibration solution. This sample is filled with DMSO to a concentration of c=600 μg/ml. Two calibration solutions are prepared from this stock solution. In a 2 ml HPLC vial, 1000 μl of DMSO are initially introduced and 34.4 μl of the stock solution are pipetted (c=20 µg/ml). […] of this solution (c=20 μg/ml) are placed in a further 2 ml HPLC vial containing 500 μl of DMSO (c=2.5 μg/ml).
After shaking the test solutions, 230 μl of the supernatant are transferred into a centrifuge tube and centrifuged at 42 000 rpm (223 000 g) for 30 min. 180 μl of the supernatant are then taken and each diluted with DMSO (1:5 sample 1; 1:100 sample 2), and transferred to HPLC vials. The two calibration solutions and the dilute sample solutions are analyzed by HPLC. Quantification is performed over the corresponding peak areas.
Distilled water; trifluoroacetic acid (Merck; 1.08262.0100); acetonitrile (HPLC grade); DMSO (Merck; 8.02912.2500).
Fluka buffer, Order No. 33643 (11.76 g citric acid, 2.57 g sodium chloride and 2.72 g sodium hydroxide).
Fluka buffer, Order No. 33646 (3.52 g potassium dihydrogenphosphate, 7.26 g sodium hydrogen phosphate).
Solution of 6.18 g sodium chloride and 3.96 g sodium dihydrogen phosphate in 1 L distilled water, adjust with 1M aqueous sodium hydroxide solution to pH 7.4.
0.6057 g TRIS was dissolved in 95 ml water, adjust to pH 8.5 with aqueous hydrochloric acid, fill with water until 100 ml volume is reached.

human V1a receptor [1] = target: T1, human V1a receptor (Homo sapiens, UniProt P37288); assay: Cellular in vitro assay for vasopressin receptor activity (V1a, aequorin luminescence); format: cell-based; conditions: selectivity ratio hV2/hV1a
T1 construct: expressed in transfected cells; host or cells: CHO K1 (Chinese hamster ovary), also stably transfected with a modified aequorin
Procedure: B-1. Cellular In Vitro Assay for Determining Vasopressin Receptor Activity
The identification of agonists and antagonists of the V1a and V2 vasopressin receptors from humans, rats and dogs as well as the quantification of the activity of the compounds of the invention is carried out using recombinant cell lines. These cell lines originally derive from a hamster's ovary epithelial cell (Chinese Hamster Ovary, CHO K1, ATCC: American Type Culture Collection, Manassas, Va. 20108, USA). The test cell lines constitutively express the human, rat or dog V1a or V2 receptors. In case of the Gaq-coupled V1a receptors, cells are also stably transfected with a modified form of the calcium-sensitive photoproteins aequorin (human and rat V1a) or obelin (dog V1a), which, after reconstitution with the cofactor coelenterazine, emit light when there are increases in free calcium concentrations [Rizzuto R, Simpson A W, Brini M, Pozzan T, Nature 358, 325-327 (1992); Illarionov B A, Bondar V S, Illarionova V A, Vysotski E S, Gene 153 (2), 273-274 (1995)]. The resulting vasopressin receptor cells react to stimulation of the recombinantly expressed Via receptors by intracellular release of calcium ions, which can be quantified by the resulting photoprotein luminescence. The Gs-coupled V2 receptors are stably transfected into cell lines expressing the gene for firefly luciferase under control of a CRE-responsible promoter. Activation of V2 receptors induces the activation of the CRE-responsive promoter via cAMP increase, thereby inducing the expression of firefly luciferase. The light emitted by photoproteins of V1a cell lines as well as the light emitted by firefly luciferase of V2 cell lines corresponds to the activation or inhibition of the respective vasopressin receptor. The bioluminescence of the cell lines is detected using a suitable luminometer [Milligan G, Marshall F, Rees S, Trends in Pharmacological Sciences 17, 235-237 (1996)].
Vasopressin V1a Receptor Cell Lines:
On the day before the assay, the cells are plated out in culture medium (DMEM/F12, 2% FCS, 2 mM glutamine, 10 mM HEPES, 5 μg/ml coelenterazine) in 384-well microtiter plates and kept in a cell incubator (96% humidity, 5% v/v CO2, 37C). On the day of the assay, test compounds in various concentrations are placed for 10 minutes in the wells of the microtiter plate before the agonist [Arg^8]-vasopressin at EC50 concentration is added. The resulting light signal is measured immediately in a luminometer.
Table 1A below lists individual IC50 values for the compounds of the invention (including racemic mixtures as well as separated enantiomers) that were obtained from cell lines transfected with the human V1a or V2 receptor. This means these IC50 values are the values for the prodrug and not for the underlying respective drug as the prodrug is mainly stable under the assay conditions.

human V1a receptor [2] = target: T1, human V1a receptor; assay: Cellular in vitro assay for verification of prodrug conversion into drug (with/without alkaline phosphatase); format: cell-based; conditions: human V1a CHO cells
Procedure: B-4. Cellular In Vitro Assay for Verification of Prodrug Conversion into Drug
To verify the conversion of prodrugs into the respective drugs, the prodrugs are incubated with and without alkaline phosphatase. Cleavage of the phosphate moiety by alkaline phosphatase converts the prodrug into the underlying respective drug [Coleman J. E., Annu. Rev. Biophys. Biomol. Struct. 1992, 21, 441-483]. As prodrug and underlying respective drug show different IC50 values, the value of the prodrug after alkaline phosphatase treatment resembles the IC50 of the respective drug. The determination of IC50 values of compounds of the invention at the human V1a receptor is carried out using a recombinant cell line. The cell line originally derives from a hamster's ovary epithelial cell (Chinese Hamster Ovary, CHO K1, ATCC: American Type Culture Collection, Manassas, Va. 20108, USA). The test cell line constitutively expresses the human V1a receptor. Cells are also stably transfected with a modified form of the calcium-sensitive photoprotein aequorin which, after reconstitution with the cofactor coelenterazine, emits light upon increase in free calcium concentration [Rizzuto R, Simpson A W, Brini M, Pozzan T, Nature 358, 325-327 (1992); Illarionov B A, Bondar V S, Illarionova V A, Vysotski E S, Gene 153 (2), 273-274 (1995)]. The resulting vasopressin receptor cell reacts to stimulation of the recombinantly expressed V1a receptor by intracellular release of calcium ions, which can be quantified by the resulting luminescence of photoprotein. The bioluminescence of the cell line is detected using a suitable luminometer [Milligan G, Marshall F, Rees S, Trends in Pharmacological Sciences 17, 235-237 (1996)].
On the day before the assay, the cells are seeded in culture medium (DMEM/F12, 2% FCS, 2 mM glutamine, 10 mM HEPES, 5 μg/ml coelenterazine) in 384-well microtiter plates and kept in a cell incubator (96% humidity, 5% v/v CO2, 37C). On the day of the assay, 100 μl of test compounds at a concentration of 100 μM are incubated for 15 minutes with 500 units alkaline phosphatase at 37° C. in tyrode buffer (20 mM HEPES, 130 mM NaCl, 5 mM KCl, 5 mM NaHCO3, 2 mM MgCl2, pH 7,4). After incubation compounds are immediately diluted and placed for 10 minutes at 37° C. on the before seeded V1a cells. For detection of antagonistic activity of the compounds [Arg^8]-vasopressin at EC50 concentration is added and the resulting light signal is measured immediately in a luminometer.

[3] = Tris buffer pH 8.5, pH 8.5, aqueous buffer, pH = 8.5 Tris buffer
[4] = pre-incubation 15 min with 500 units alkaline phosphatase at 37° C., read-out: IC50 with AP
[5] = without alkaline phosphatase, read-out: IC50 without AP

T1 sequence (P37288 whole entry): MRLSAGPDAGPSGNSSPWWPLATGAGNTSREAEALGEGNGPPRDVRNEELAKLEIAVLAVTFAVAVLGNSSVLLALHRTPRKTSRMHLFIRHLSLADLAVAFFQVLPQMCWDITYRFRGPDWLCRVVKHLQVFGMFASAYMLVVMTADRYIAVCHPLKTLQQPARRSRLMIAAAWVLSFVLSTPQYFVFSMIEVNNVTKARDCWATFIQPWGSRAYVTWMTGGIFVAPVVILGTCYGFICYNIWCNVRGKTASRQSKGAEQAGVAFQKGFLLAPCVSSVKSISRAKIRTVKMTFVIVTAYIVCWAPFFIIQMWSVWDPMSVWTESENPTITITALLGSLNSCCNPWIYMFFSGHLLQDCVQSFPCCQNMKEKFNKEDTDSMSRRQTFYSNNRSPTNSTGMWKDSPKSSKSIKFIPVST

| solubility at 24 h (Solubility; [3]) | solubility at 24 h (Solubility; citrate buffer pH 4, pH 4, aqueous buffer, pH = 4 citrate buffer) | solubility at 24 h (Solubility; phosphate buffer pH 7, pH 7, aqueous buffer, pH = 7.0 buffer) | ratio IC50 hV2/hV1a (human V1a receptor [1]) | IC50 (human V1a receptor [2]; [4]) | IC50 (human V1a receptor [2]; [5]) | Solubility (Solubility; pH = 4 citrate buffer) | Solubility (Solubility; pH = 7.0 buffer) | SMILES |
| --- | --- | --- | --- | --- | --- | --- | --- | --- |
| 4 µg/mL (≈ 7.36 µM) | 5.9 µg/mL (≈ 10.9 µM) | 2.8 µg/mL (≈ 5.15 µM) | 38.2 | 1.1 nM | 1.7 nM |  |  | NC(=O)c1nc(Cn2nc(-c3ccc(Cl)cc3)n(C[C@H](O)C(F)(F)F)c2=O)nn1-c1ncccc1Cl [Example 8A, 3-({3-(4-Chlorophenyl)-5-oxo-4-[(2S)-3,3,3-trifluoro-2-hydroxypropyl]-4,5-dihydro-1H-1,2,4-triazol-1-yl}methyl)-1-(3-chloropyridin-2-yl)-1H-1,2,4-triazole-5-carboxamide] |
| 4.3 µg/mL (≈ 7.47 µM) |  |  | 41.4 | 1.35 nM | 1.35 nM | not detectable | not detectable | NC(=O)c1nc(Cn2nc(-c3ccc(Cl)cc3)n(C[C@H](O)C(F)(F)F)c2=O)nn1-c1ccccc1C(F)(F)F [Example 6A, 3-({3-(4-Chlorophenyl)-5-oxo-4-[(2S)-3,3,3-trifluoro-2-hydroxypropyl]-4,5-dihydro-1H-1,2,4-triazol-1-yl}methyl)-1-[2-(trifluoromethyl)phenyl]-1H-1,2,4-triazole-5-carboxamide] |
